Measured values published in PMC6940986, “Structural Insights into the Intracellular Region of the Human Magnesium Transport Mediator CNNM4” (International Journal of Molecular Sciences, 2019).

Molecular target: T1, hCNNM4BAT (CNNM4BAT) (Homo sapiens, UniProt Q6P4Q7)
T1 construct: gene CNNM4; Bateman module (CBS1-CBS2) with helix H0; for NMR U-15N, N-terminal His6-V5-TEV site tag (pET151-D/TOPO), tag cleavage not described; E. coli BL21 CodonPlus; homodimer (CBS module)
Assay: 2D […]-HSQC NMR titration; 1H STD NMR
Assay type: binding
Details: estimated; no Mg2+ added; 100 mM HEPES, pH 7.4 preset (7.2 in results), 100 mM NaCl, 298 K; 100 uM protein

T1 sequence (Q6P4Q7 359-511): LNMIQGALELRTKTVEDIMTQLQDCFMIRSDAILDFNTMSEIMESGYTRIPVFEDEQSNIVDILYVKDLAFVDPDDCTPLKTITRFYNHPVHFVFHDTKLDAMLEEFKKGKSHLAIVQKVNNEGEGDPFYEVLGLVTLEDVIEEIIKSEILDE

KD: ~ 10^−2 to 10^−3 M
Compound: Nc1ncnc2c1ncn2[C@@H]1O[C@H](COP(=O)(O)OP(=O)(O)NP(=O)(O)O)[C@@H](O)[C@H]1O [ADPNP]
